In patent US7696231B2, “Oxindole hydrazide modulators of protein tyrosine phosphatases (PTPs)” (Laboratoires Serono SA, priority 2001, dated 2010):

What was measured:
db/db mice [1] = test: In vivo assay in db/db mice, fed animals (repeated oral administration); conditions: 5×50 mg/kg per os once daily during 5 days, blood glucose before and 16 hrs after the last drug administration
Method: (§1) The following assay aims at determining the anti-diabetic effect of the test compounds of formula (I), in vivo in db/db mice using either fasted (to determine the postprandial glycemia right after a predetermined diet), or fed animals, to determine glycemia after a predetermined period of treatment.
(§2) 2 groups of db/db mice, 6 animals each, were formed, in the first one mice were fasted during 20 hours, the second one comprises fed (ad libitum) mice.
Group 2: The fed animals (6) were administered (per os) a dose of 5×50 mg/kg of the test compound according to formula (I).
Mice were orally treated once daily during 5 days with compounds of formula (I). Blood glucose was determined before drug administration and 16 hrs after the last drug administration.

db/db mice [2] = test: In vivo assay in db/db mice, fasted animals (postprandial glycemia); conditions: db/db mice fasted 20 hours, 100 mg/kg per os, blood glucose before and 4 hrs after drug administration
Method: as §1, §2
Group 1: The fasted animals (6) were administered (per os) a dose of 100 mg/kg of the test compound according to formula (I).
After oral administration with compounds of formula (I), they had access to commercial food (ad libitum). Blood glucose (postprandial glycemia) was determined before and 4 hrs after drug administration.

PTP1B = molecular target: T1, PTP1B (Homo sapiens, UniProt P18031); test: PTP Enzyme Assay (PTP1B); type: biochemical; conditions: catalytic core of human recombinant PTP, DiFMUP substrate at Km, 30 minutes at room temperature; read-out: inhibition (IC50) with regard to PTP1B
T1 construct: using the catalytic core of a human recombinant PTP, as an enzyme; made in house
T1 sequence (P18031 3-277 limits assumed): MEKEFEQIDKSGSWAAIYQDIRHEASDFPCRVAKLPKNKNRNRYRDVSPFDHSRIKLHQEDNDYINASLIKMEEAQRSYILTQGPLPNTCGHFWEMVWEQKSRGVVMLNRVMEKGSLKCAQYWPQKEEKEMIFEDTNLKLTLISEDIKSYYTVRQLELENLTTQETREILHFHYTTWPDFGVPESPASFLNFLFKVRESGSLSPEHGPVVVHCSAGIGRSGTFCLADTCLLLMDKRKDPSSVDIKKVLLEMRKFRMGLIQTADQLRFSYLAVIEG
Text: (§3) The PTP Enzyme Assay aims at determining the extent of inhibition of the examined PTP (e.g. PTP1B, TC-PTP, PTP-β, DEP-1, LAR, SHP-1, SHP-2, GLEPP-1, PTP-κ, PTP-μ, VHR, hVH5) in the presence of a test compound. The inhibition is illustrated by IC50 values which denote the concentration necessary to achieve an inhibition of 50% of the given PTP.
(§4) The cloning and expression of the catalytic domain of PTPs (e.g. PTP1B, TC-PTP, PTP-β, DEP-1, LAR, SHP-1, SHP-2, GLEPP-1, PTP-κ, PTP-μ, VHR, hVH5) maybe performed as described in J. Biol. Chem. 2000, 275(13), pp 9792-9796.
(§5) Assays were performed in a 96 well plate format, using the catalytic core of a human recombinant PTP, as an enzyme and 6,8-DiFluoro-4-MethylUmbelliferyl Phosphate (DiFMUP, Molecular Probes, D-6567) as a substrate at the Km value which was predetermined for each enzyme. Compounds to be tested were dissolved in 100% DMSO at a concentration of 2 mM. […] The reaction ran for 30 minutes at room temperature before reading the fluorescence intensity on a Perkin-Elmer Victor 2 spectrofluorimeter (excitation at 355 nm, emission at 460 nm, for 0.1 s). The percentage of inhibition relative to the fluorescence observed in the presence of solvent (5% DMSO) alone was determined. The IC50 values for inhibition were determined in triplicates on at least 3 separate occasions.

GLEPP-1 = molecular target: T2, GLEPP-1 (Homo sapiens, UniProt Q16827); test: PTP Enzyme Assay (GLEPP-1); type: biochemical; conditions: catalytic core of human recombinant PTP, DiFMUP substrate at Km, 30 minutes at room temperature; read-out: inhibition (IC50) with regard to GLEPP-1
T2 construct: using the catalytic core of a human recombinant PTP, as an enzyme; made in house
T2 sequence (Q16827 938-1195 limits assumed): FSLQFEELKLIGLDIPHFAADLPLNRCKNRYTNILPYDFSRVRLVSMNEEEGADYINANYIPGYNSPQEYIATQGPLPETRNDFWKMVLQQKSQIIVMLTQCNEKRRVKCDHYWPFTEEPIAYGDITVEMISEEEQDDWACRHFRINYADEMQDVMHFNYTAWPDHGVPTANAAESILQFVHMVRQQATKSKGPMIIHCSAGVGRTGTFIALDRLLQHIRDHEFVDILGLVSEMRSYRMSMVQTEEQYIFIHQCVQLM
Text: as §3, §4, §5

IC50 (PTP1B)	IC50 (GLEPP-1)	Structure (SMILES)	reduction of the blood glucose level (db/db mice [1])	reduction of blood glucose level induced by food intake (postprandial glycemia) (db/db mice [2])
		COC(=O)c1ccc(OCC(=O)NN=C2C(=O)Nc3ccc(I)cc32)cc1 [Example 23, Methyl 4-{2-[2-(5-iodo-2-oxo-1,2-dihydro-3H-indol-3-ylidene)hydrazino]-2-oxoethoxy}benzoate]	30%	
		O=C(COc1ccc([N+](=O)[O-])cc1)NN=C1C(=O)Nc2ccc(I)cc21 [Example 18, N′-(5-Iodo-2-oxo-1,2 dihydro-3H-indol-3-ylidene)-2-(4-nitrophenoxy)acetohydrazide]		34%
340 nM	~496 nM	O=C(CCc1ccccc1)Nc1ccc(C(=O)NN=C2C(=O)Nc3ccc(I)cc32)cc1 [Example 1, N-(4-{[2-(5-Iodo-2-oxo-1,2-dihydro-3H-indol-3-ylidene)hydrazino]carbonyl}phenyl)-3-phenylpropanamide]	22%	30%
		O=C1Nc2ccc(I)cc2C1=NNC(=O)c1cccc(Oc2ccccc2)c1 [Example 26, N′-(5-Iodo-2-oxo-1,2-dihydro-3H-indol-3-ylidene)-3-phenoxybenzohydrazide]	17%	
		O=C1Nc2ccc(I)cc2C1=NNC(=O)c1ccc(NC(=O)c2ccccc2)cc1 [Example 50, N-(4-{[2-(5-Iodo-2-oxo-1,2-dihydro-3H-indol-3-ylidene)hydrazino]-carbonyl}phenyl)benzamide]		30%
770 nM		O=C(CCc1cccc(O)c1)Nc1ccc(C(=O)NN=C2C(=O)Nc3ccc(I)cc32)cc1 [Example 70, 3-(3-Hydroxyphenyl)-N-(4-{[2-(5-iodo-2-oxo-1,2-dihydro-3H-indol-3-ylidene)hydrazino]carbonyl}phenyl)propanamide]		
